# Source: PubChem BioAssay AID2060607 (Molecular Pharmacology Branch, DTP, NCI, 2025)
# Several values for one entry are separate records, joined by “and”; a condition that tells them apart may be missing. Equal values may be shown once.
# System: 876862-298-R-J1-PDC complex spheroids, viability % test/control
# Test: Anticancer human tumor 876862-298-R-J1-PDC patient-derived endometrial carcinoma cell line growth inhibition [CLK]
# Settings: for viability, T/C: stronger effect = lower value
# Summary of the method: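 Multi-cell-type spheroids combined patient-derived tumor cells with HUVEC endothelial cells and human mesenchymal stem cells. Paired agents were dosed in half-log steps down from about clinical Cmax, or from 10 microM where Cmax was unknown.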
# [1] = curve of first compound, second compound 0.0316 µM
# [2] = curve of first compound, second compound 0.1 µM
# [3] = curve of first compound, second compound 0.316 µM
# [4] = curve of first compound, second compound 1 µM
# [5] = curve of first compound, second compound 3.16 µM
# [6] = curve of first compound, second compound 10 µM
# [7] = second compound 0.0316 µM, first compound 0.00316 µM
# [8] = second compound 0.0316 µM, first compound 0.01 µM
# [9] = second compound 0.0316 µM, first compound 0.0316 µM
# [10] = second compound 0.0316 µM, first compound 0.1 µM
# [11] = second compound 0.1 µM, first compound 0.00316 µM
# [12] = second compound 0.1 µM, first compound 0.01 µM
# [13] = second compound 0.1 µM, first compound 0.0316 µM
# [14] = second compound 0.1 µM, first compound 0.1 µM
# [15] = second compound 0.316 µM, first compound 0.00316 µM
# [16] = second compound 0.316 µM, first compound 0.01 µM
# [17] = second compound 0.316 µM, first compound 0.0316 µM
# [18] = second compound 0.316 µM, first compound 0.1 µM
# [19] = second compound 1 µM, first compound 0.00316 µM
# [20] = second compound 1 µM, first compound 0.01 µM
# [21] = second compound 1 µM, first compound 0.0316 µM
# [22] = second compound 1 µM, first compound 0.1 µM
# [23] = second compound 3.16 µM, first compound 0.00316 µM
# [24] = second compound 3.16 µM, first compound 0.01 µM
# [25] = second compound 3.16 µM, first compound 0.0316 µM
# [26] = second compound 3.16 µM, first compound 0.1 µM
# [27] = second compound 10 µM, first compound 0.00316 µM
# [28] = second compound 10 µM, first compound 0.01 µM
# [29] = second compound 10 µM, first compound 0.0316 µM
# [30] = second compound 10 µM, first compound 0.1 µM
# [31] = second compound 0.0316 µM, first compound 0.316 µM
# [32] = second compound 0.0316 µM, first compound 1 µM
# [33] = second compound 0.1 µM, first compound 0.316 µM
# [34] = second compound 0.1 µM, first compound 1 µM
# [35] = second compound 0.316 µM, first compound 0.316 µM
# [36] = second compound 0.316 µM, first compound 1 µM
# [37] = second compound 1 µM, first compound 0.316 µM
# [38] = second compound 1 µM, first compound 1 µM
# [39] = second compound 3.16 µM, first compound 0.316 µM
# [40] = second compound 3.16 µM, first compound 1 µM
# [41] = second compound 10 µM, first compound 0.316 µM
# [42] = second compound 10 µM, first compound 1 µM
# [43] = second compound 0.0316 µM, first compound 3.16 µM
# [44] = second compound 0.0316 µM, first compound 10 µM
# [45] = second compound 0.1 µM, first compound 3.16 µM
# [46] = second compound 0.1 µM, first compound 10 µM
# [47] = second compound 0.316 µM, first compound 3.16 µM
# [48] = second compound 0.316 µM, first compound 10 µM
# [49] = second compound 1 µM, first compound 3.16 µM
# [50] = second compound 1 µM, first compound 10 µM
# [51] = second compound 3.16 µM, first compound 3.16 µM
# [52] = second compound 3.16 µM, first compound 10 µM
# [53] = second compound 10 µM, first compound 3.16 µM
# [54] = second compound 10 µM, first compound 10 µM
# 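Also: spheroids exposed to drugs for 7 days before readout.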
# 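For viability, T/C in this document: 100% = DMSO vehicle control wells.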
compound,measurement,setting,value
Cn1ncnc1[C@H]1c2n[nH]c(=O)c3cc(F)cc(c23)N[C@@H]1c1ccc(F)cc1 + CNC(=O)c1ccc(Nc2nc(OC3CCCC3)c3c(-c4ccc5nc(C)oc5c4)c[nH]c3n2)c(OC)c1,IC50,[1],> 100 nM
same,IC50,[2],< 0.316 nM
same,IC50,[3],< 0.316 nM
same,IC50,[4],< 0.316 nM
same,IC50,[5],< 0.316 nM
same,IC50,[6],< 0.316 nM
same,"viability, T/C","second compound 0.0316 µM, first compound 0.000316 µM",67.3%
same,"viability, T/C","second compound 0.0316 µM, first compound 0.001 µM",84.6%
same,"viability, T/C",[7],73.4%
same,"viability, T/C",[8],79.9%
same,"viability, T/C",[9],89.7%
same,"viability, T/C",[10],77.5%
same,"viability, T/C","second compound 0.1 µM, first compound 0.000316 µM",42.2%
same,"viability, T/C","second compound 0.1 µM, first compound 0.001 µM",45.4%
same,"viability, T/C",[11],46.7%
same,"viability, T/C",[12],46.5%
same,"viability, T/C",[13],53%
same,"viability, T/C",[14],45.6%
same,"viability, T/C","second compound 0.316 µM, first compound 0.000316 µM",40.9%
same,"viability, T/C","second compound 0.316 µM, first compound 0.001 µM",44.5%
same,"viability, T/C",[15],46%
same,"viability, T/C",[16],43.3%
same,"viability, T/C",[17],44.1%
same,"viability, T/C",[18],36.7%
same,"viability, T/C","second compound 1 µM, first compound 0.000316 µM",31.3%
same,"viability, T/C","second compound 1 µM, first compound 0.001 µM",32.9%
same,"viability, T/C",[19],30%
same,"viability, T/C",[20],28.5%
same,"viability, T/C",[21],26.8%
same,"viability, T/C",[22],27.9%
same,"viability, T/C","second compound 3.16 µM, first compound 0.000316 µM",22.8%
same,"viability, T/C","second compound 3.16 µM, first compound 0.001 µM",23.2%
same,"viability, T/C",[23],19.6%
same,"viability, T/C",[24],21.5%
same,"viability, T/C",[25],21.7%
same,"viability, T/C",[26],18.5%
same,"viability, T/C","second compound 10 µM, first compound 0.000316 µM",21.1%
same,"viability, T/C","second compound 10 µM, first compound 0.001 µM",22.4%
same,"viability, T/C",[27],20%
same,"viability, T/C",[28],23.3%
same,"viability, T/C",[29],17.5%
same,"viability, T/C",[30],16.2%
CCN1CCN(Cc2ccc(Nc3ncc(F)c(-c4cc(F)c5nc(C)n(C(C)C)c5c4)n3)nc2)CC1 + CN1CCN(c2cc(C(=O)Nc3cc4cc(-c5cnn(C)c5)ccc4cn3)ccn2)CC1,IC50,[1],678 nM
same,IC50,[2],< 3.16 nM
same,IC50,[3],< 3.16 nM
same,IC50,[4],< 3.16 nM
same,IC50,[5],< 3.16 nM
same,IC50,[6],< 3.16 nM
same,"viability, T/C",[7],90.2%
same,"viability, T/C",[8],81.3%
same,"viability, T/C",[9],73.3%
same,"viability, T/C",[10],74.8%
same,"viability, T/C",[31],52.3%
same,"viability, T/C",[32],47.5%
same,"viability, T/C",[11],47%
same,"viability, T/C",[12],45%
same,"viability, T/C",[13],44.1%
same,"viability, T/C",[14],47.3%
same,"viability, T/C",[33],40.9%
same,"viability, T/C",[34],43.3%
same,"viability, T/C",[15],5.03%
same,"viability, T/C",[16],5.13%
same,"viability, T/C",[17],6.69%
same,"viability, T/C",[18],7.27%
same,"viability, T/C",[35],9.15%
same,"viability, T/C",[36],9.4%
same,"viability, T/C",[19],0.94%
same,"viability, T/C",[20],1.28%
same,"viability, T/C",[21],1.38%
same,"viability, T/C",[22],1.66%
same,"viability, T/C",[37],2.25%
same,"viability, T/C",[38],3.04%
same,"viability, T/C",[23],1.66%
same,"viability, T/C",[24],0.97%
same,"viability, T/C",[25],1.47%
same,"viability, T/C",[26],1.34%
same,"viability, T/C",[39],2.18%
same,"viability, T/C",[40],3.2%
same,"viability, T/C",[27],0.6%
same,"viability, T/C",[28],0.92%
same,"viability, T/C",[29],1.95%
same,"viability, T/C",[30],2.18%
same,"viability, T/C",[41],1.88%
same,"viability, T/C",[42],2.14%
O=C(c1cc(Cc2n[nH]c(=O)c3ccccc23)ccc1F)N1CCN(C(=O)C2CC2)CC1 + CN1CCN(c2cc(C(=O)Nc3cc4cc(-c5cnn(C)c5)ccc4cn3)ccn2)CC1,IC50,[1],> 10000 nM
same,IC50,[2],633 nM
same,IC50,[3],< 31.6 nM
same,IC50,[4],< 31.6 nM
same,IC50,[5],< 31.6 nM
same,IC50,[6],< 31.6 nM
same,"viability, T/C",[9],88.1%
same,"viability, T/C",[10],95.5%
same,"viability, T/C",[31],85.7%
same,"viability, T/C",[32],94.9%
same,"viability, T/C",[43],96.2%
same,"viability, T/C",[44],74.6%
same,"viability, T/C",[13],51.3%
same,"viability, T/C",[14],50.5%
same,"viability, T/C",[33],50.9%
same,"viability, T/C",[34],50.6%
same,"viability, T/C",[45],45%
same,"viability, T/C",[46],35.2%
same,"viability, T/C",[17],2.72%
same,"viability, T/C",[18],3.01%
same,"viability, T/C",[35],2.89%
same,"viability, T/C",[36],3.34%
same,"viability, T/C",[47],3.07%
same,"viability, T/C",[48],2.03%
same,"viability, T/C",[21],0.78%
same,"viability, T/C",[22],1.06%
same,"viability, T/C",[37],0.79%
same,"viability, T/C",[38],0.54%
same,"viability, T/C",[49],0.67%
same,"viability, T/C",[50],0.77%
same,"viability, T/C",[25],1.02%
same,"viability, T/C",[26],0.99%
same,"viability, T/C",[39],1.13%
same,"viability, T/C",[40],1.07%
same,"viability, T/C",[51],2.34%
same,"viability, T/C",[52],1.07%
same,"viability, T/C",[29],0.83%
same,"viability, T/C",[30],0.87%
same,"viability, T/C",[41],0.89%
same,"viability, T/C",[42],1.19%
same,"viability, T/C",[53],1.06%
same,"viability, T/C",[54],0.83%
COc1cccc2c1C(=O)c1c(O)c3c(c(O)c1C2=O)CC(O)(C(=O)CO)CC3OC1CC(N)C(O)C(C)O1 (stereo not given),"viability, T/C",compound 0.0316 µM,41.8% and 33.2%
same,"viability, T/C",compound 0.1 µM,16.9% and 13.5%
same,"viability, T/C",compound 0.316 µM,7.66% and 6.87%
same,"viability, T/C",compound 1 µM,7.07% and 7.16%
same,"viability, T/C",compound 3.16 µM,0.89% and 0.78%
same,"viability, T/C",compound 10 µM,4.03% and 4%
same,IC50,curve of compound,< 31.6 nM
COc1ccc([C@@H](O)c2cc(-c3ncnc4cc(N5CCOCC5)ccc34)c(F)cc2Cl)nn1 + CN1CCN(c2cc(C(=O)Nc3cc4cc(-c5cnn(C)c5)ccc4cn3)ccn2)CC1,IC50,[1],4950 nM
same,IC50,[2],< 31.6 nM
same,IC50,[3],< 31.6 nM
same,IC50,[4],< 31.6 nM
same,IC50,[5],< 31.6 nM
same,IC50,[6],< 31.6 nM
same,"viability, T/C",[9],93.3%
same,"viability, T/C",[10],90%
same,"viability, T/C",[31],86%
same,"viability, T/C",[32],84.2%
same,"viability, T/C",[43],59.2%
same,"viability, T/C",[44],35%
same,"viability, T/C",[13],46.2%
same,"viability, T/C",[14],43.4%
same,"viability, T/C",[33],47%
same,"viability, T/C",[34],42.8%
same,"viability, T/C",[45],31.5%
same,"viability, T/C",[46],21.1%
same,"viability, T/C",[17],2.02%
same,"viability, T/C",[18],2.01%
same,"viability, T/C",[35],3%
same,"viability, T/C",[36],2.2%
same,"viability, T/C",[47],1.56%
same,"viability, T/C",[48],2.98%
same,"viability, T/C",[21],0.64%
same,"viability, T/C",[22],0.77%
same,"viability, T/C",[37],0.64%
same,"viability, T/C",[38],0.69%
same,"viability, T/C",[49],0.55%
same,"viability, T/C",[50],2.27%
same,"viability, T/C",[25],1.08%
same,"viability, T/C",[26],2.43%
same,"viability, T/C",[39],1.6%
same,"viability, T/C",[40],1%
same,"viability, T/C",[51],2.06%
same,"viability, T/C",[52],1.3%
same,"viability, T/C",[29],0.75%
same,"viability, T/C",[30],0.99%
same,"viability, T/C",[41],1.44%
same,"viability, T/C",[42],1.58%
same,"viability, T/C",[53],1.58%
same,"viability, T/C",[54],1.69%
